The text below walks through data of US9307764B2, “Pesticidal diaryl—heterocyclyl derivatives” (BAYER INTELLECTUAL PROPERTY GMBH, priority 2011, dated 2016).

Common to all, as to format: in vivo
In one assay the test system is Spodoptera litura. In words: Biological Test Example 3: Test on larvae of Spodoptera litura (method using artificial feeds). As to conditions: 100 ppm effective component concentration, 3rd-instar larvae, after 7 days, 25° C. How it is done: (§1) Unless other methods are mentioned specifically, the sample solution preparation was prepared as follows.
(§2) Solvent: 3 parts by weight of dimethyl formamide
(§3) Emulsifier: 1 part by weight of polyoxyethylene alkyl phenyl ether
(§4) To prepare a suitable concoction including the active compound, 1 part by weight of the active compound was mixed with the above amount of the solvent containing the above amount of the emulsifier, and the resulting mixture was diluted with water to predetermined concentrations.
Powdery artificial feeds (trade name: SILK MATE, manufactured by Nihon Nosan Kogyo, Japan, 2.3 g) were added to a plastic cup (diameter: 7.5 cm, height: 4 cm) to achieve a certain thickness. Water-diluted liquid (5 mL) of the active compound prepared above having predetermined concentration was evenly poured thereto and allowed to stand until the feeds are solidified. Five of the 3rd-instar larvae of Spodoptera litura were released in each cup, and covered with a lid. The cups were put in a temperature controlled room at 25° C. having humidity of 50 to 60%, and the number of dead larvae after 7 days was determined to calculate the pesticidal ratio. 100% pesticidal ratio means death of all the larvae, while 0% pesticidal ratio means no dead larvae.

Another assay deals with Aulacophora femoralis. In words: Biological Test Example 2: Test on Aulacophora femoralis (cucumber leaf immersion). Particulars: 100 ppm effective component concentration, 2nd-instar larvae, seven days later, 25° C. Here is the method: as §1, §2, §3, §4
Leaves of cucumbers were immersed in the water-diluted solution containing the active compound at the predetermined concentration which was prepared above and, after the solution was air-dried, the resultant leaves were put onto sterilized black soil in a plastic cup, into which five of the 2nd-instar larvae of Aulacophora femoralis were then released. The cup was covered with a lid and maintained in a temperature controlled room at 25° C. having humidity of 50 to 60%. Seven days later, the number of dead larvae was counted to calculate the pesticidal ratio. 100% pesticidal ratio means death of all the larvae, while 0% pesticidal ratio means no dead larvae.

The next assay concerns Tetranychus urticae. The assay is described as follows: Biological Test Example 1: Test on Tetranychus urticae (spray on Egyptian bean leaves). Particulars: 100 ppm effective component concentration, adult mites, seven days later. Here is the method:
as §1, §2, §3, §4
50 to 100 of adult Tetranychus urticae were inoculated to leaves at 2-leaf stage of Egyptian bean planted in pots of 6 cm in diameter, to which, 1 day later, the above prepared water diluted solution of the active compound at the predetermined concentration was sufficiently sprayed with a spray gun. After the compounds were sprayed, the pots were left in a greenhouse and the acaricidal ratio was calculated seven days later. 100% acaricidal ratio means death of all the mites, while 0% acaricidal ratio means none of the mites were dead.

For `CCC(=O)NCc1ccc(N2CC(c3cc(Cl)c(Cl)c(Cl)c3)(C(F)(F)F)OS2=O)cc1C(F)(F)F` (centres unmarked) [3-17, N-{4-[2-oxide-5-(3,4,5-trichlorophenyl)-5-(trifluoromethyl)-1,2,3-oxathiazolin-3-yl]-2-(trifluoromethyl)benzyl}propane amide], the pesticidal ratio with Spodoptera litura and with Aulacophora femoralis was 100% throughout.
For the compound `CCC(=O)NCc1ccc(N2CC(c3cc(Cl)c(Cl)c(Cl)c3)(C(F)(F)F)OS2(=O)=O)cc1C(F)(F)F` (centres unmarked) [5-17, N-{4-[2,2-dioxide-5-(3,4,5-trichlorophenyl)-5-(trifluoromethyl)-1,2,3-oxathiazolin-3-yl]-2-(trifluoromethyl)benzyl}propane amide], the acaricidal ratio in the assay with Tetranychus urticae is recorded as 100%. For the same compound, the pesticidal ratio with Spodoptera litura and in the assay with Aulacophora femoralis was 100% each time.
On to `CCC(=O)NCc1ccc(N2COC(c3cc(Cl)c(Cl)c(Cl)c3)(C(F)(F)F)C2)cc1C(F)(F)F` (centres unmarked) [Compound No. 1-17, N-{4-[5-(3,4,5-trichlorophenyl)-5-(trifluoromethyl)-1,3-oxazolidin-3-yl]-2-(trifluoromethyl)benzyl}propane amide], for which the acaricidal ratio in the assay on Tetranychus urticae amounted to 100%. Further, the pesticidal ratio in the assay with Spodoptera litura and in the assay with Aulacophora femoralis was 100% throughout.
